From paper PMC10065799, “High-throughput profiling of sequence recognition by tyrosine kinases and SH2 domains using bacterial peptide display” (eLife, 2023)
Square brackets hold non-standard residues; d marks the D form. pY = N[C@@H](Cc1ccc(OP(=O)(O)O)cc1)C(=O)O

T1: c-Abl kinase domain (Mus musculus, UniProt P00520)
T1 sequence (P00520 242-493 limits assumed): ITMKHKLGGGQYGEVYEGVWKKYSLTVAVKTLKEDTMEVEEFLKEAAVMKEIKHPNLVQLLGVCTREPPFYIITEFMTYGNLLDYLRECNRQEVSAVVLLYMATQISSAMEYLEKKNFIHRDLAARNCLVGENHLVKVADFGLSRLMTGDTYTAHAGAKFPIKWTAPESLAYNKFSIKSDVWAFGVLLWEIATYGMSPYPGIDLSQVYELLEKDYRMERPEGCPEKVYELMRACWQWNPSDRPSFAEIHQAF


Legend:
c-Src kinase domain = c-Src kinase domain (Homo sapiens, UniProt P12931); assay: pTyr-Var library bacterial peptide display kinase screen (enrichment scores); format: biochemical; settings: sheet "Src";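 note: log2 fold change in enrichment of variant over reference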
EPHB2 kinase domain = assay: as above; format: biochemical, human; settings: sheet EPHB2;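 note: log2 fold change in enrichment of variant over reference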
Fer kinase domain = assay: as above; format: biochemical, mouse; settings: sheet "Fer"
EPHB1 kinase domain = assay: as above; format: biochemical, human; settings: for Screen: sheet EPHB1, effect of the variant peptide relative to its reference peptide in the pTyr-Var library screen (enrichment scores); for Screen (variant relative to reference peptide, measured in the pTyr-Var library screen): sheet "EPHB1", variant seq vs reference seq, bacterial peptide display enrichment
c-Abl kinase domain = target: T1, c-Abl kinase domain; assay: as above; format: biochemical; settings: fig5-data2, sheet "Abl"; Screen for the variant/reference peptide pair, pTyr-Var library;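 note: log2 fold change in enrichment of variant over reference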
[1] = target: human c-Src SH2 domain (residues 143-250) (human, UniProt P12931-1 143-250, biotin on the Avi tag (co-expression with the biotin ligase BirA)); assay: fluorescence polarisation; competition: unlabeled phosphopeptide serially diluted against 30 nM fluorescent peptide and 240 nM (1.5 x KD) c-Src SH2; same buffer; 25 °C; cubic binding equation; settings: both partners purified
[2] = variant peptide versus its reference peptide in the pTyr-Var library screen
[3] = effect of variant peptide relative to its reference peptide in the pTyr-Var library screen (enrichment scores)
[4] = value of the variant peptide against its reference peptide in the pTyr-Var library screen with Fer
[5] = effect of the variant peptide relative to its reference peptide in the pTyr-Var library screen
[6] = effect of the variant relative to its reference peptide in the pTyr-Var library screen
[7] = variant peptide relative to its reference peptide, pTyr-Var library screen enrichment

| Molecule | Screen (EPHB2 kinase domain; [3]) | Screen (Fer kinase domain; [4]) | Screen (EPHB1 kinase domain) | Screen (c-Src kinase domain; [5]) | further results |
| --- | --- | --- | --- | --- | --- |
| ADAGMYGVLPW [PLP1_Y207_R205G] | 1.359 | 1.986 | 0.87 | – | Screen (c-Src kinase domain; [2]): -0.01805 |
| ENGPFYASFPP [GDAP2_Y488_T489A_YF] | 2.037 | 0.7376 | 1.693 | 0.1608 | – |
| FRSSLYSLMET [MYO5C_Y633_L634S] | 1.684 | 3.791 | 2.366 | – | Screen (c-Src kinase domain; [2]): 2.978 |
| GRKTLYSFFSP [UNG_Y8_Q4R] | – | – | – | – | Screen (c-Src kinase domain; [2]): -1.198; Screen (EPHB2 kinase domain; [6]): -1.763; Screen (Fer kinase domain; [7]): -1.21; Screen (variant relative to reference peptide, measured in the pTyr-Var library screen) (EPHB1 kinase domain): -1.828 |
| HLVLNYGVCFC [JAK2_Y613_V617F] | 0.8396 | – | 0.008865 | – | Screen (c-Abl kinase domain): 1.962 |
| HNMPIYEGFAL [ACTA1_Y168_V165M_YF] | 0.1725 | 0.2696 | 0.09959 | 0.3248 | Screen (c-Abl kinase domain): -1.455 |
| HNVPIYEGFGL [ACTA1_Y168_A172G_YF] | 0.031 | -0.2533 | 0.1073 | -0.3085 | Screen (c-Abl kinase domain): -0.8833 |
| INPIIYAFVVE [CCR5_Y297_G301V] | -1.294 | -1.367 | -1.262 | -0.9018 | – |
| ISSLLYELLEE [TRPC6_Y896_R895L] | – | – | – | – | Screen (c-Src kinase domain; [2]): 3.086; Screen (EPHB2 kinase domain; [6]): 3.042; Screen (Fer kinase domain; [7]): 3.789; Screen (variant relative to reference peptide, measured in the pTyr-Var library screen) (EPHB1 kinase domain): 3.527 |
| KQQEIYQEVTQ [CD209_Y239_L242V] | 0.564 | 1.048 | 0.2667 | -0.1121 | – |
| LNGDRYFKGIV [DCX_Y64_R59L] | 1.457 | 2.021 | 2.112 | – | Screen (c-Abl kinase domain): 0.06367 |
| LTTEAYEWEPC [ELMOD3_Y61_R66C] | 1.193 | 1.258 | 1.595 | 2.164 | – |
| NKFTTYLPWLP [C9orf24_Y126_R129W_YF] | 3.885 | 4.402 | 3.061 | 3.427 | – |
| NNHGNYIVHLG [ETFDH_Y172_R175H] | 1.999 | – | 2.943 | – | – |
| NREGVYTDFAP [TGFBI_Y537_V539D] | – | – | – | – | Screen (c-Src kinase domain; [2]): -0.2611; Screen (EPHB2 kinase domain; [6]): -1.696; Screen (Fer kinase domain; [7]): -1.802; Screen (variant relative to reference peptide, measured in the pTyr-Var library screen) (EPHB1 kinase domain): -2.047 |
| NVVQEYERVII [NPHS2_Y131_K126N] | -0.3645 | 0.1682 | -0.6061 | – | – |
| PFTRNYFVWAV [CYBA_Y87_R90W_YF] | 2.204 | 2.258 | 3.209 | – | Screen (c-Abl kinase domain): 0.4523 |
| PLEGEYFTLQI [TP53_Y327_D324E] | – | – | – | – | Screen (c-Src kinase domain; [2]): 0.9967; Screen (EPHB2 kinase domain; [6]): 1.812; Screen (Fer kinase domain; [7]): 1.311; Screen (variant relative to reference peptide, measured in the pTyr-Var library screen) (EPHB1 kinase domain): 1.418 |
| QNTVDYFDLFG [PTPN11_Y62_G60V_YF] | -4.099 | – | -3.39 | – | Screen (c-Src kinase domain; [2]): -1.317 |
| QPSALYEDRFL [ASS1_Y83_S79P_YF] | 0.0303 | 0.05915 | -0.4777 | -0.4742 | – |
| QTPVLYTMLDH [MPZ_Y220_A221T] | -2.33 | 0.203 | -1.287 | -0.5854 | – |
| RQSTLYSFFPT [MSH6_Y8_K13T] | 0.1224 | 1.758 | -0.1515 | -0.09567 | – |
| VDTGVYAVPPP [BCAR1_Y410_S407T] | 0.0652 | 0.101 | 0.1474 | -0.01564 | – |
| VVQGIYGFHHH [UFSP2_Y285_Y290H_YF] | – | – | – | – | Screen (c-Src kinase domain; [2]): 0.2882; Screen (EPHB2 kinase domain; [6]): -2.017; Screen (Fer kinase domain; [7]): -0.4799; Screen (variant relative to reference peptide, measured in the pTyr-Var library screen) (EPHB1 kinase domain): -1.444 |
| Ac-QVEGIG[pY]DFIPTG-NH2 (SMILES CC[C@H](C)[C@H](NC(=O)CNC(=O)[C@H](CCC(=O)O)NC(=O)[C@@H](NC(=O)[C@H](CCC(N)=O)NC(C)=O)C(C)C)C(=O)NCC(=O)N[C@@H](Cc1ccc(OP(=O)(O)O)cc1)C(=O)N[C@@H](CC(=O)O)C(=O)N[C@@H](Cc1ccccc1)C(=O)N[C@H](C(=O)N1CCC[C@H]1C(=O)N[C@H](C(=O)NCC(N)=O)[C@@H](C)O)[C@@H](C)CC, source: synthetic peptide (synthesized in-house, RP-HPLC purified)) [CBS_Y308 phosphopeptide Ac-QVEGIG(pY)DFIPTG-NH2] | – | – | – | – | binding result [1]: binds |
| Ac-QVEGIS[pY]DFIPTG-NH2 (SMILES CC[C@H](C)[C@H](NC(=O)CNC(=O)[C@H](CCC(=O)O)NC(=O)[C@@H](NC(=O)[C@H](CCC(N)=O)NC(C)=O)C(C)C)C(=O)N[C@@H](CO)C(=O)N[C@@H](Cc1ccc(OP(=O)(O)O)cc1)C(=O)N[C@@H](CC(=O)O)C(=O)N[C@@H](Cc1ccccc1)C(=O)N[C@H](C(=O)N1CCC[C@H]1C(=O)N[C@H](C(=O)NCC(N)=O)[C@@H](C)O)[C@@H](C)CC, source: synthetic peptide (synthesized in-house, RP-HPLC purified)) [CBS_Y308_G307S phosphopeptide Ac-QVEGIS(pY)DFIPTG-NH2] | – | – | – | – | binding result [1]: binds |
| Ac-QPIFEG[pY]ALPHAG-NH2 (SMILES CC[C@H](C)[C@H](NC(=O)[C@@H]1CCCN1C(=O)[C@H](CCC(N)=O)NC(C)=O)C(=O)N[C@@H](Cc1ccccc1)C(=O)N[C@@H](CCC(=O)O)C(=O)NCC(=O)N[C@@H](Cc1ccc(OP(=O)(O)O)cc1)C(=O)N[C@@H](C)C(=O)N[C@@H](CC(C)C)C(=O)N1CCC[C@H]1C(=O)N[C@@H](Cc1c[nH]cn1)C(=O)N[C@@H](C)C(=O)NCC(N)=O, source: synthetic peptide (synthesized in-house, RP-HPLC purified)) [ACTA1_Y171_YF phosphopeptide Ac-QPIFEG(pY)ALPHAG-NH2] | – | – | – | – | binding result [1]: binds |
| Ac-QPIFEG[pY]GLPHAG-NH2 (SMILES CC[C@H](C)[C@H](NC(=O)[C@@H]1CCCN1C(=O)[C@H](CCC(N)=O)NC(C)=O)C(=O)N[C@@H](Cc1ccccc1)C(=O)N[C@@H](CCC(=O)O)C(=O)NCC(=O)N[C@@H](Cc1ccc(OP(=O)(O)O)cc1)C(=O)NCC(=O)N[C@@H](CC(C)C)C(=O)N1CCC[C@H]1C(=O)N[C@@H](Cc1c[nH]cn1)C(=O)N[C@@H](C)C(=O)NCC(N)=O, source: synthetic peptide (synthesized in-house, RP-HPLC purified)) [ACTA1_Y171_A172G_YF phosphopeptide Ac-QPIFEG(pY)GLPHAG-NH2] | – | – | – | – | binding result [1]: binds |
